From patent US5059589A, “Glaucoma treatment” (Abbott Laboratories, priority 1990, dated 1991)
Structures can show the parent of a compound that is named as a salt.

System: intraocular pressure in rabbits
Experiment: Effects of topically administered renin inhibiting compounds on intraocular pressure of rabbits
Assay type: in vivo, Male albino, New Zealand rabbits
Conditions: topical 0.1 ml, 0.1% (w/v)
Description: The antiglaucoma activity of the compounds was tested by measuring the effect on intraocular pressure in rabbits as described by Tinjum, A.M., Acta Ophthalmologica, 50, 677 (1972). Male albino, New Zealand rabbits were placed in restraining devices and the intraocular pressure was measured with an applamatic tonometer. Exactly 0.1 ml of an isotonic saline solution containing a test compound was instilled into the conjuctival sac and the intraocular pressure was measured at 5, 15, 30, 60, 90, 120 and 180 minutes afterwards.

[1] = 15 minutes after administration
[2] = 30 minutes after administration
[3] = 60 minutes after administration
[4] = 90 minutes after administration
[5] = 120 minutes after administration
[6] = 180 minutes after administration

| Compound | Mean Intraocular Pressure in mmHg (0 minutes after administration) [mmHg] | Mean Intraocular Pressure in mmHg (5 minutes after administration) [mmHg] | Mean Intraocular Pressure in mmHg [1] [mmHg] | Mean Intraocular Pressure in mmHg [2] [mmHg] | Mean Intraocular Pressure in mmHg [3] [mmHg] | Mean Intraocular Pressure in mmHg [4] [mmHg] | Mean Intraocular Pressure in mmHg [5] [mmHg] | Mean Intraocular Pressure in mmHg [6] [mmHg] |
| --- | --- | --- | --- | --- | --- | --- | --- | --- |
| CC(C)C[C@H](O)[C@H](O)[C@H](CC1CCCCC1)NC(=O)[C@H](Cc1cnc[nH]1)NC(=O)[C@H](Cc1ccccc1)NC(=O)N1CCOCC1 [Compound I, (4-morpholinyl)carbonyl Phe-His amide of 2(S) amino-1 cyclohexyl-(3R),4(S)dihydroxy-6-methylheptane] | 19.0 | 18.2 | 16.5 | 12.2 | 13.9 | 15.1 | 16.8 | 20.4 |
| COc1ccc(C[C@H](NC(=O)CC(C)(C)N)C(=O)N[C@@H](Cc2cnc[nH]2)C(=O)N[C@@H](CC2CCCCC2)[C@@H](O)[C@@H](O)CC(C)C)cc1 [Compound II, H-((beta,betadimethyl)-beta-Ala)-(4 OCH3)Phe-His amide of 2(S)-amino-1-cyclohexyl-3(R),4(S) dihydroxy-6-methylheptane di-acetic acid salt] | 18.4 | 15.0 | 13.5 | 13.2 | 13.4 | 17.1 | 19.0 | 17.2 |
| CC(C)C[C@H](O)[C@H](O)[C@H](CC1CCCCC1)NC(=O)[C@H](Cc1cnc[nH]1)NC(=O)[C@H](Cc1ccccc1)NC(=O)N1CCC(O)CC1 [Compound III, (1-(4 hydroxypiperidinyl)carbonyl)-Phe-His amide of 2(S)-amino 1-cyclohexyl-3(R),4(S) dihydroxy 6-methylheptane] | 19.1 | 15.5 | 12.4 | 13.9 | 14.9 | 16.3 | 17.8 | 18.2 |
| CCN1C[C@@H]([C@H](O)[C@H](CC2CCCCC2)NC(=O)[C@H](Cc2cnc[nH]2)NC(=O)[C@@H](CC(=O)N(C)CCOCOCCOC)Cc2ccccc2)OC1=O [Compound IV, (2R)-2-benzyl-3-((2-methoxyethoxy-methoxyethyl)methylaminocarbonyl)propionyl-His amide of (2'S,1'R,5S)-3-ethyl-5-(1'-hydroxy 2'-amino-3'-cyclohexylpropyl) -oxazolidin-2-one] | 18.2 | 14.5 | 13.0 | 13.3 | 14.2 | 16.3 | 14.9 | 16.2 |
| C=C(C[C@H](O)[C@H](CC1CCCCC1)NC(=O)C(Cc1cnc[nH]1)NC(=O)C(Cc1ccccc1)NC(=O)OC(C)(C)C)C(=O)NCCC(C)C (stereo partly drawn) [Compound IX, Boc-Phe-His amide of (4S,5S) N-(3-methylbutyl)-5-amino-6-cyclohexyl-1-hexen-4-ol-2-carboxamide] | 22.2 | 22.5 | 18.1 | 15.8 | 19.5 | 22.4 | 24.3 | 24.2 |
| CC(C)(C)OC(=O)NC(Cc1ccccc1)C(=O)NC(Cc1cnc[nH]1)C(=O)NC(CC1CCCCC1)C(O)CSC1CCCCC1 (stereo not drawn) [Compound VI, Boc-Phe-His amide of 3-amino-4 cyclohexyl 1 cyclohexylmercapto-2-hydroxybutane] | 21.0 | 16.5 | 16.5 | 15.2 | 14.7 | 21.7 | 22.4 | 19.9 |
| CC(C)CC(=O)NCC[C@H](O)[C@H](CC1CCCCC1)NC(=O)C(Cc1cnc[nH]1)NC(=O)C(Cc1ccccc1)NC(=O)OC(C)(C)C (stereo partly shown) [Compound VIII] | 19.4 | 17.0 | 16.5 | 15.4 | 18.4 | 21.2 | 20.5 | 21.9 |
| CC(C)(C)OC(=O)NC(Cc1ccccc1)C(=O)NC(Cc1cnc[nH]1)C(=O)N[C@@H](CC1CCCCC1)[C@@H](O)[C@@H](O)CN (stereo partly drawn) [Compound X, Boc-Phe-His amide (4-amino) of (2S,3R,4S) 1,4-diamino-2,3-dihydroxy-5-cyclohexylpentane] | 20.8 | 20.6 | 20.6 | 15.9 | 15.1 | 19.1 | 20.6 | 21.7 |
| C=C(C[C@H](O)[C@H](O)[C@H](CC1CCCCC1)NC(=O)C(Cc1cnc[nH]1)NC(=O)C(Cc1ccccc1)NC(=O)OC(C)(C)C)C(=O)[O-].[Na+] (stereo partly drawn) [Compound XII, Boc-Phe-His amide of (4S,5R,6S)-6-amino-7-cyclohexyl-4,5-dihydroxy-1-hepten-2-oic acid sodium salt] | 19.3 | 12.5 | 10.3 | 12.4 | 12.3 | 12.3 | 14.6 | 16.3 |
| CC(C)CC(NC(=O)C(Cc1ccccc1)NC(=O)CCCC(=O)O)C(=O)N[C@@H](CC1CCCCC1)[C@@H](O)[C@@H](O)CC(C)C (stereo partly drawn) [Compound XIII, 4-Carboxybutyroyl-Phe-Leu amide of 2(S)-amino 1-cyclohexyl 3(R),4(S)-dihydroxy 6-methylheptane] | 19.5 | 17.6 | 17.2 | 15.6 | 16.4 | 16.3 | 17.5 | 15.3 |
| CCOC(=O)[C@H](C)NC(Cc1ccccc1)C(=O)NC(Cc1cnc[nH]1)C(=O)N[C@@H](CC1CCCCC1)[C@@H](O)[C@@H](O)CC(C)C (stereo partly drawn) [Compound XIV, (1(S)-(Ethoxycarbonyl)-ethyl)-Phe-His amide of 2 (S)-amino 1-cyclohexyl-3(R),4(S)-dihydroxy 6-methylheptane] | 21.0 | 16.8 | 14.0 | 15.1 | 14.6 | 16.4 | 17.9 | 19.6 |
| CC[C@@H]1C(=O)OC[C@@H]1Cc1cncn1C [Pilocarpine, reference compound] | 17.6 | 14.4 | 13.0 | 11.9 | 13.0 | 12.6 | 16.4 | 17.7 |
| Boc-Phe-His amide of (2S,4S,1'R,2'S)-2-(2-amino-7-cyclohexyl-4,5-dihydroxyheptan-2-oic acid sodium salt [Compound XI] | 18.5 | 13.4 | 11.4 | 10.6 | 14.6 | 16.1 | 15.7 | 19.0 |
| Boc-Phe-Histidinyl-4-amino-3-hydroxy 5-cyclohexylpentanoic acid amide of 2 methylbutylamine [Compound VII] | 19.7 | 17.2 | 13.8 | 14.3 | 14.8 | 19.3 | 21.1 | 22.7 |
